Reference: paper PMC6278556, “An Accurate and Effective Method for Measuring Osimertinib by UPLC-TOF-MS and Its Pharmacokinetic Study in Rats” (Molecules, 2018)
Where two headings read alike, the source gives them in different places.

Tests used:
[1] = Pharmacokinetic study in SD rats after oral administration; type: in vivo; conditions: n = 7, mean ± SD, non-compartmental
Protocol: The pharmacokinetic study of osimertinib was applied to seven male SD rats using oral administration by gavage and the dosage was 4.5 mg/kg. Osimertinib was diluted and suspended by 0.5% sodium carboxymethylcellulose. No less than 0.3 mL rat plasma was sampled at 0, 1, 2, 3, 4, 5, 6, 7, 8, 10, 12, 24, 36, and 48 h after oral administration through the oculi chorioideae vein under the condition of light ether anesthesia. After 10 min centrifuging of all analytes at 5000× g, the supernatant was collected and frozen at −40 °C until analysis. The use of animals in the presented study was permitted by the Ethics Committee of the Hebei Medical University, and all animal studies were carried out according to the Guidance for the Care and Use of Laboratory Animals of the US National Institute of Health.
Ten microliters of IS solution (500 ng/mL) was prepared in 100 μL rat plasma and vortex-mixed for 20 s. After that step, 500 μL of acetonitrile was added to precipitate the protein. Then, the mixture was vortexed for 1 min and centrifuged at 12,000 rpm for 10 min. The supernatant was transferred into a new Eppendorf tube and evaporated to dryness through nitrogen gas at 45 °C. After 100 μL of acetonitrile was added to reconstitute the residue and vortexed for 1 min, all samples were centrifuged at 12,000× g for 10 min. Finally, 80 μL of the supernatant was collected and injected into UPLC sample vials before use.
Dynamic background subtraction is a novel technique performed using the Analyst software (AB Sciex, Foster City, CA, USA). In addition, the data of the pharmacokinetic study of osimertinib were collected and calculated by the DAS 2.1.1 software in the non-compartmental mode (Mathematical Pharmacology Professional Committee of China, Shanghai, China).

[2] = Stability of osimertinib in rat plasma under various storage conditions; type: in vitro ADME
Protocol: The stabilities of this method, which include the freeze–thaw stability, autosampler stability, short-term stability and long-term stability, were evaluated through three QC samples after the sample preparation method. […] In addition, the long-term stability was evaluated through the determination of three QC samples that were kept at −80 °C for 30 days. All samples were considered stable with RSDs < ±15%.

[3] = stated without source; cited from earlier work
[4] = Sprague-Dawley (SD), rat, plasma, male SD rats, oral 4.5 mg/kg

C=CC(=O)Nc1cc(Nc2nccc(-c3cn(C)c4ccccc34)n2)c(OC)cc1N(C)CCN(C)C [Osimertinib, N-(2-{2dimethylaminoethyl-methylamino}-4-methoxy-5-{[4-(1-methylindol-3-yl)pyrimidin-2yl]amino}phenyl)prop-2-enamide]
AUC(0-inf) [1, 4]: 0.426 ± 0.0817 µg·h/mL
AUC(0-t) [1, 4]: 0.382 ± 0.069 µg·h/mL
Cmax [1, 4]: 0.0285 ± 0.00397 µg/mL
MRT [1, 4]: 14.5 ± 1.91 h
Vd/F ([1]; Sprague-Dawley (SD), rat, plasma, male SD rats, oral 4.5 mg/kg, read-out: Vz/F (distribution volume)): 234 ± 66.7 L/kg
half-life ([1]; Sprague-Dawley (SD), rat, plasma, male SD rats, oral 4.5 mg/kg, read-out: t1/2z (terminal half-life) (converted)): 15 ± 3.44 h
CLz/F (clearance) ([1]; male SD rats, oral 4.5 mg/kg): 10.84 ± 1.94 L/h/kg
tmax ([1]; male SD rats, oral 4.5 mg/kg, 4.5 mg/kg): 4.80 ± 1.10 h
CL/F ([1]; male, Sprague-Dawley (SD), rat, plasma, po, 4.5 mg/kg, read-out: CLz/F (clearance) (converted)): ~10.8 L/h/kg
tmax ([1]; male, Sprague-Dawley (SD), rat, plasma, po, 4.5 mg/kg, read-out: tmax): 4.5 h
Stability in words ([2]; plasma samples, storage temperature (−80 °C) for at least 30 days): stable
Stability in words ([2]; rat plasma, autosampler temperature (4 °C) for 24 h): good stability
Stability in words ([2]; rat plasma, room temperature (25 °C) for 24 h): good stability
Stability in words ([2]; rat plasma, three freeze (−80 °C) and thaw (0 °C) cycles): remained stable
pKa [3]: 13.64
